Legend:
Assay in all cases: Kinase profiling in a biochemical assay panel (mobility shift assays and ELISA), %-inhibition at 1 μM; selectivity entropy
[1] = target: panel of more than 300 wild-type and mutant kinases (313 kinase panel) (Homo sapiens, UniProt P04629); details: kinase TRKA; 1 μM
[2] = target: T1, panel of more than 300 wild-type and mutant kinases (313 kinase panel) (Homo sapiens, UniProt Q96PY6); details: kinase NEK1; 1 μM
T1 sequence (Q96PY6 1-1258): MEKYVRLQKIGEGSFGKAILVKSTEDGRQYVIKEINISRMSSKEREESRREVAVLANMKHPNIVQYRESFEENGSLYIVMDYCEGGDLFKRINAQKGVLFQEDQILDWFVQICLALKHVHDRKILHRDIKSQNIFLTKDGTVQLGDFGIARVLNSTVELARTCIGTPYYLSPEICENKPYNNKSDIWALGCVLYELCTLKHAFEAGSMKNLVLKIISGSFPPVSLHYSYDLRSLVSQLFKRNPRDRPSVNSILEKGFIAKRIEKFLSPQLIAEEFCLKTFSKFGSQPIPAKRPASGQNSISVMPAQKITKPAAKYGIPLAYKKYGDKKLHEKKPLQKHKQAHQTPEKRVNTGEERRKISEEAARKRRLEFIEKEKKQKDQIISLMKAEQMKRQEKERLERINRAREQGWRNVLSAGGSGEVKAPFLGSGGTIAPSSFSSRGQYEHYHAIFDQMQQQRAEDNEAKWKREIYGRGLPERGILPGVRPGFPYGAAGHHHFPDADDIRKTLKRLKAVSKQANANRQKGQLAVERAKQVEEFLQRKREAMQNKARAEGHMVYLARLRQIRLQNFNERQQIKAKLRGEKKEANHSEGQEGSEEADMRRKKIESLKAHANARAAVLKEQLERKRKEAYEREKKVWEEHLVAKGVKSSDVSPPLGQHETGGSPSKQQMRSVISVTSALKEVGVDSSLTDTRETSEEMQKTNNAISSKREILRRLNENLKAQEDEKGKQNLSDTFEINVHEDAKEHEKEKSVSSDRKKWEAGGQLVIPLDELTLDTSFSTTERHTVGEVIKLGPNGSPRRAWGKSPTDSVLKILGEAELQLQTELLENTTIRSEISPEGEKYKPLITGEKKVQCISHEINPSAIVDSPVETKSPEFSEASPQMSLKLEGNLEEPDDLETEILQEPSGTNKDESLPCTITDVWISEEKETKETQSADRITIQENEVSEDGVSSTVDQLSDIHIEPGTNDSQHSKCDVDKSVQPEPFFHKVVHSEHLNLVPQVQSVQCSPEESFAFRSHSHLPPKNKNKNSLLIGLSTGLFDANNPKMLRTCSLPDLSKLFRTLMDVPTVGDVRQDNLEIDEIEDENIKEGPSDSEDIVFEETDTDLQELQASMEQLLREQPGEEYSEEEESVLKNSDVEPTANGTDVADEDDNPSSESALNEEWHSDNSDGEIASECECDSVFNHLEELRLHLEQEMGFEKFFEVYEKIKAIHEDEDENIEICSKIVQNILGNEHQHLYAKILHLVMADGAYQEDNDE

[3] = target: panel of more than 300 wild-type and mutant kinases (313 kinase panel) (Homo sapiens, UniProt P48730); details: kinase CK1δ; 1 μM compound
[4] = target: panel of more than 300 wild-type and mutant kinases (313 kinase panel) (Homo sapiens, UniProt P07948); details: kinase LYNa; compound at 1 μM
[5] = target: panel of more than 300 wild-type and mutant kinases (313 kinase panel) (Homo sapiens, UniProt P28482); details: kinase Erk2; compound at 1 μM
[6] = target: T2, panel of more than 300 wild-type and mutant kinases (313 kinase panel) (Homo sapiens, UniProt Q13237); details: kinase CGK2; 1 μM compound
T2 sequence (Q13237 1-762): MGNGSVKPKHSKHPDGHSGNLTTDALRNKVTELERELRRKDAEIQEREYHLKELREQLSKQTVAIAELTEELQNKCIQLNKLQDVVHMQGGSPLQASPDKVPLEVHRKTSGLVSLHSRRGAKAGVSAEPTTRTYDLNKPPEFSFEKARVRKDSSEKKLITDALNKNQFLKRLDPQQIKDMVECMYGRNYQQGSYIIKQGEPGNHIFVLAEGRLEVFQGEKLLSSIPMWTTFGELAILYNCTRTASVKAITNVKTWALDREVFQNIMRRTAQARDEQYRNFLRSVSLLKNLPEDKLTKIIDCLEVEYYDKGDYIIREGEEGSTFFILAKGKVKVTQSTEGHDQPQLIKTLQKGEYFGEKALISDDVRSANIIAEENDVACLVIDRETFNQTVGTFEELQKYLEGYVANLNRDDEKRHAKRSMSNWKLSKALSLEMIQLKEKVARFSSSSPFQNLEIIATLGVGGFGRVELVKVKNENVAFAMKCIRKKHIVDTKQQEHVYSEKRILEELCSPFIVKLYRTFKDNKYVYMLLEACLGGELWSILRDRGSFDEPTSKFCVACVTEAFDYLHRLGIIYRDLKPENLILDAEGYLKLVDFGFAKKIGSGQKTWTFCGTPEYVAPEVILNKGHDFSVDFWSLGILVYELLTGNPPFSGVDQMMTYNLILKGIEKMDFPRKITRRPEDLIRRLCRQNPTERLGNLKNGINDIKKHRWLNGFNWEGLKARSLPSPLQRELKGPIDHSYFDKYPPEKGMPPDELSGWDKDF

[7] = target: panel of more than 300 wild-type and mutant kinases (313 kinase panel) (Homo sapiens, UniProt P53355); details: kinase DAPK1; compound at 1 μM
[8] = target: panel of more than 300 wild-type and mutant kinases (313 kinase panel) (Homo sapiens, UniProt Q07912); details: kinase ACK; 1 μM compound
Sequence of panel of more than 300 wild-type and mutant kinases (313 kinase panel) (Homo sapiens, UniProt Q07912) (Q07912 whole entry, change not shown): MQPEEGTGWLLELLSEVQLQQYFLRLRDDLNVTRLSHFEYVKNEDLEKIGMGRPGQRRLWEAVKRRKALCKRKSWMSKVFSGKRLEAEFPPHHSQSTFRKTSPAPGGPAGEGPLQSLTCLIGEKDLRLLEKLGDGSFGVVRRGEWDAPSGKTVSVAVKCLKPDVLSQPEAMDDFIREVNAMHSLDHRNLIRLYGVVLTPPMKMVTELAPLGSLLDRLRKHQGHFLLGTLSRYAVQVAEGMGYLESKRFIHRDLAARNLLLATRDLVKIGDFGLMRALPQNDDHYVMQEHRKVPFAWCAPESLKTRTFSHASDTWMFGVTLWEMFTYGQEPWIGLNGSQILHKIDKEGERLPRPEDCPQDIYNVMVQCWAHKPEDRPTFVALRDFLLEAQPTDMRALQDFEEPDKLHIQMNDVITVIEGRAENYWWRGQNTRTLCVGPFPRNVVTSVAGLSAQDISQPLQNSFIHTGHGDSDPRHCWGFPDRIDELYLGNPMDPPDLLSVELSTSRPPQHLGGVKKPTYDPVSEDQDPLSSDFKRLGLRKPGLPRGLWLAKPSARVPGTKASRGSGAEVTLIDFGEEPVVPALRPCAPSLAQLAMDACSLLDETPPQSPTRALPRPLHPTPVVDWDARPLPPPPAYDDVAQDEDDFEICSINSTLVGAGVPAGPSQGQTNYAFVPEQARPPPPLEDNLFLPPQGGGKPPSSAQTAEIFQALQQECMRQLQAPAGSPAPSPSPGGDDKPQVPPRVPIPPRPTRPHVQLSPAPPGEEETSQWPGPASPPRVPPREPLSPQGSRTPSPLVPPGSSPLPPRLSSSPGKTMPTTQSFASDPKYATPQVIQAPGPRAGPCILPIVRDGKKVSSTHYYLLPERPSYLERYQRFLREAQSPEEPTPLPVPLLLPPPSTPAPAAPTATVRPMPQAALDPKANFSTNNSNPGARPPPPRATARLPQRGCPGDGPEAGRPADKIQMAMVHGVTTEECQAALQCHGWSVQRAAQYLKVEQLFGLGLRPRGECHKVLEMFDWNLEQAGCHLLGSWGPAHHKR

[9] = target: panel of more than 300 wild-type and mutant kinases (313 kinase panel) (Homo sapiens, UniProt P51451); details: kinase BLK; 1 μM compound
Sequence of panel of more than 300 wild-type and mutant kinases (313 kinase panel) (Homo sapiens, UniProt P51451) (P51451 whole entry, change not shown): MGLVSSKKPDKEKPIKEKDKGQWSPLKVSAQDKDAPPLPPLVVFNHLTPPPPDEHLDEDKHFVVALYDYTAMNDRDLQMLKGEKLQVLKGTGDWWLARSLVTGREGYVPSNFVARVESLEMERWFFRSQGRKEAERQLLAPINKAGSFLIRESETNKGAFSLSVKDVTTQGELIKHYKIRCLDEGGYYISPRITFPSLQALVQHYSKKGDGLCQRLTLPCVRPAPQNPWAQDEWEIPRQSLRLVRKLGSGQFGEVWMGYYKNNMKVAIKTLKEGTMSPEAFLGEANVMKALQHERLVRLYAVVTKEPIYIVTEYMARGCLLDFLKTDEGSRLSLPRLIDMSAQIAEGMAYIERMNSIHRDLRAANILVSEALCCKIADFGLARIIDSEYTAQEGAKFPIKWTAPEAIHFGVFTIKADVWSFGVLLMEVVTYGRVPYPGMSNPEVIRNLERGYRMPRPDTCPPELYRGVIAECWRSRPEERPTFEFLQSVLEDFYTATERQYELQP

SMILES	%-inhibition of TRKA [1] [%]	%-inhibition of NEK1 [2] [%]	%-inhibition, CK1δ [3] [%]	%-inhibition of LYNa [4] [%]	%-inhibition of Erk2 [5] [%]	%-inhibition, CGK2 [6] [%]	%-inhibition of DAPK1 [7] [%]	%-inhibition, ACK [8] [%]	%-inhibition, BLK [9] [%]
CNC(=O)c1cc(Oc2ccc(NC(=O)Nc3ccc(Cl)c(C(F)(F)F)c3)c(F)c2)ccn1 [regorafenib]	90	-7	-6	89	-5	-1.78	-11	-3.35	25
CO[C@H]1C[C@@H]2CC[C@@H](C)[C@@](O)(O2)C(=O)C(=O)N2CCCC[C@H]2C(=O)O[C@H]([C@H](C)C[C@@H]2CC[C@@H](OC(=O)C(C)(CO)CO)[C@H](OC)C2)CC(=O)[C@H](C)/C=C(\C)[C@@H](O)[C@@H](OC)C(=O)[C@H](C)C[C@H](C)/C=C/C=C/C=C/1C [temsirolimus]	-3.53	-8	-5.47	-4.48	-6	-2.84	-8	-8	-12
CC(=O)Nc1cccc(-n2c(=O)n(C3CC3)c(=O)c3c(Nc4ccc(I)cc4F)n(C)c(=O)c(C)c32)c1 [trametinib]	-1.17	-5	0.365	-1.74	-5	-2.61	-6	-5.39	-2.79
COc1cc2c(Nc3ccc(Br)cc3F)ncnc2cc1OCC1CCN(C)CC1 [vandetanib]	46	-8	6	93	-4	-2.65	-9	24	89
CCCS(=O)(=O)Nc1ccc(F)c(C(=O)c2c[nH]c3ncc(-c4ccc(Cl)cc4)cc23)c1F [vemurafenib]	16	-2.74	-3	73	-4.58	-2.26	-0.115	40	52
